From ChEMBL document CHEMBL1201862, “PubChem BioAssay data set” (2004)
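48-hour exposure; five concentrations; linearly interpolated endpoints. The concentration for 50% growth inhibition is given as GI50.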 Calls of active or inactive are those of the source. Cut-off read from the data, not from the text of the source: active = GI50 up to about 1.1 µM and inactive = higher.

Legend:
Experiment in all cases: NCI anticancer screen, dose series, 48 h
CAKI-1 = tested on: CAKI-1
COLO 205 = tested on: COLO 205
EKVX = tested on: EKVX
HOP-62 = tested on: HOP-62
K562 = tested on: K562
MDA-N = tested on: MDA-N
MOLT-4 = tested on: MOLT-4
Malme-3M = tested on: Malme-3M
NCI-H460 = tested on: NCI-H460
OVCAR-4 = tested on: OVCAR-4
OVCAR-5 = tested on: OVCAR-5
SF-268 = tested on: SF-268
SK-MEL-28 = tested on: SK-MEL-28
SK-MEL-2 = tested on: SK-MEL-2
SK-OV-3 = tested on: SK-OV-3
SW-620 = tested on: SW-620
M14 = tested on: M14
Hs-578T = tested on: Hs-578T
NCI/ADR-RES = tested on: NCI/ADR-RES
T47D = tested on: T47D

Measured: GI50

CC(C)=CCC/C(C)=C/CCC1(C)C2COC(=O)C21 (stereo not drawn)
inactive: CAKI-1 > 100 µM | COLO 205 48.3 µM | EKVX 53.2 µM | HOP-62 > 100 µM | K562 22.6 µM | MDA-N 54.7 µM | MOLT-4 30.9 µM | Malme-3M > 100 µM | NCI-H460 36.2 µM | OVCAR-4 42.8 µM | OVCAR-5 > 100 µM | SF-268 > 100 µM | SK-MEL-28 29 µM | SK-MEL-2 70.5 µM | SK-OV-3 > 100 µM | SW-620 19.3 µM

CCOC(=O)CC(C)C1(C=O)CCCCC1=O (stereo not drawn)
inactive: CAKI-1 > 100 µM | COLO 205 29.3 µM | EKVX > 100 µM | HOP-62 > 100 µM | K562 > 100 µM | M14 29.6 µM | MOLT-4 > 100 µM | Malme-3M > 100 µM | NCI-H460 60 µM | OVCAR-4 79.8 µM | OVCAR-5 > 100 µM | SF-268 > 100 µM | SK-MEL-28 > 100 µM | SK-MEL-2 > 100 µM | SK-OV-3 > 100 µM

COc1ccc(CN2C(=O)[C@@H]3Cc4c(OC)c(C)c(OC)c(OC)c4[C@H](/C2=C\c2cc(OC)c(OC)c(C)c2OC)N3C(=O)OC(C)C)cc1
inactive: CAKI-1 30.3 µM | COLO 205 12.4 µM | EKVX 12.2 µM | HOP-62 65 µM | K562 25.3 µM | M14 28.4 µM | MOLT-4 6.97 µM | Malme-3M 41.2 µM | NCI-H460 15.8 µM | OVCAR-4 50.7 µM | OVCAR-5 > 100 µM | SF-268 > 100 µM | SK-MEL-28 > 100 µM | SK-MEL-2 91.8 µM | SK-OV-3 32.5 µM | SW-620 94.8 µM

Nn1c(-c2cccc(Cl)c2)nc2ccccc2c1=O
inactive: CAKI-1 > 100 µM | COLO 205 > 100 µM | EKVX > 100 µM | HOP-62 > 100 µM | K562 > 100 µM | M14 > 100 µM | MOLT-4 60.1 µM | Malme-3M > 100 µM | NCI-H460 > 100 µM | OVCAR-4 > 100 µM | OVCAR-5 > 100 µM | SF-268 > 100 µM | SK-MEL-28 > 100 µM | SK-MEL-2 > 100 µM | SK-OV-3 > 100 µM | SW-620 > 100 µM

COc1ccc2c(c1)CCC1C3(CCCC21C)OCCO3 (stereo not drawn)
inactive: CAKI-1 34.6 µM | COLO 205 17.9 µM | EKVX 16.8 µM | HOP-62 13.8 µM | K562 15.4 µM | M14 18.8 µM | MOLT-4 14.4 µM | Malme-3M 27.9 µM | NCI-H460 16.3 µM | OVCAR-4 29.4 µM | OVCAR-5 27 µM | SF-268 6.9 µM | SK-MEL-28 20.2 µM | SK-MEL-2 4.7 µM | SK-OV-3 24 µM | SW-620 33.9 µM

Cc1ccc(S(=O)(=O)Nn2c(-c3ccccc3)c(C#N)c(-c3ccc(Cl)cc3)c(C#N)c2=O)cc1
inactive: CAKI-1 55.7 µM | COLO 205 24.5 µM | HOP-62 30.1 µM | K562 33.7 µM | M14 18.4 µM | MDA-N 28.4 µM | MOLT-4 18.7 µM | NCI-H460 27.9 µM | OVCAR-4 38.8 µM | OVCAR-5 47 µM | SK-MEL-28 24.4 µM | SK-MEL-2 20.2 µM | SK-OV-3 35.4 µM | SW-620 30.4 µM

Cc1cccc2[s+]snc12
inactive: CAKI-1 > 78.2 µM | COLO 205 23.9 µM | EKVX > 51.3 µM | HOP-62 > 100 µM | K562 24.9 µM | M14 > 68.5 µM | MOLT-4 25.8 µM | Malme-3M 30.5 µM | NCI-H460 > 100 µM | OVCAR-4 > 100 µM | OVCAR-5 > 100 µM | SF-268 > 100 µM | SK-MEL-28 > 47.5 µM | SK-MEL-2 > 100 µM | SK-OV-3 > 100 µM | SW-620 24.2 µM

O=C(CNc1nccs1)Nn1cnc2ccc(S(=O)(=O)Nc3nccs3)cc2c1=O
inactive: CAKI-1 > 100 µM | COLO 205 > 100 µM | EKVX > 100 µM | HOP-62 > 100 µM | Hs-578T > 100 µM | K562 > 100 µM | M14 > 100 µM | MDA-N > 100 µM | MOLT-4 > 100 µM | Malme-3M > 100 µM | NCI-H460 > 100 µM | NCI/ADR-RES > 100 µM | OVCAR-4 > 100 µM | OVCAR-5 > 100 µM | SF-268 > 100 µM | SK-MEL-28 > 100 µM | SK-MEL-2 > 100 µM | SK-OV-3 > 100 µM | SW-620 > 100 µM

CN1Cc2cc3cc4c(cc3nc2N(C)C1)OCCO4
inactive: CAKI-1 > 100 µM | COLO 205 > 100 µM | EKVX > 100 µM | HOP-62 > 100 µM | K562 > 100 µM | M14 > 100 µM | MDA-N > 100 µM | MOLT-4 64 µM | Malme-3M > 100 µM | NCI-H460 > 100 µM | NCI/ADR-RES > 100 µM | OVCAR-4 > 100 µM | OVCAR-5 > 100 µM | SF-268 > 100 µM | SK-MEL-2 > 100 µM | SK-OV-3 > 100 µM | SW-620 > 100 µM

CN(C)C(=S)/N=c1\ssc(=S)n1C1CCCCC1
inactive: CAKI-1 33 µM | EKVX 45.7 µM | HOP-62 > 100 µM | K562 16.9 µM | M14 14.7 µM | MOLT-4 18.2 µM | Malme-3M 23.4 µM | NCI-H460 18 µM | OVCAR-4 39.4 µM | OVCAR-5 74.1 µM | SF-268 32.4 µM | SK-MEL-28 36.1 µM | SK-MEL-2 52.8 µM | SK-OV-3 > 100 µM | SW-620 13.7 µM

CCCCCCCCCCCCCCCC(=O)OCC1CCCN2CCCCC12 (stereo not drawn)
inactive: CAKI-1 > 100 µM | COLO 205 > 100 µM | EKVX > 100 µM | HOP-62 > 100 µM | Hs-578T > 100 µM | K562 > 100 µM | M14 > 100 µM | MDA-N > 100 µM | MOLT-4 > 100 µM | Malme-3M > 100 µM | NCI-H460 > 100 µM | NCI/ADR-RES > 100 µM | OVCAR-4 > 100 µM | OVCAR-5 > 100 µM | SF-268 > 100 µM | SK-MEL-28 > 100 µM | SK-MEL-2 > 100 µM | SK-OV-3 > 100 µM | SW-620 > 100 µM

CNC(=O)NCCCCC(NC(C)=O)C(=O)NCc1ccccc1 (stereo not drawn)
inactive: CAKI-1 > 100 µM | COLO 205 > 100 µM | EKVX > 100 µM | HOP-62 > 100 µM | K562 > 10 µM | M14 > 100 µM | MOLT-4 > 100 µM | Malme-3M > 100 µM | NCI-H460 > 100 µM | OVCAR-4 > 100 µM | OVCAR-5 > 100 µM | SF-268 > 100 µM | SK-MEL-28 > 100 µM | SK-MEL-2 > 100 µM | SK-OV-3 > 100 µM | SW-620 > 100 µM

CC1CCOc2ccc(cc2)/C=N\c2ccc(cc2)-c2ccc(cc2)/N=C\c2ccc(cc2)OCC1
inactive: CAKI-1 > 100 µM | COLO 205 > 100 µM | EKVX > 100 µM | Hs-578T > 100 µM | K562 > 100 µM | M14 > 100 µM | MDA-N > 100 µM | MOLT-4 > 100 µM | NCI-H460 > 100 µM | NCI/ADR-RES > 100 µM | OVCAR-4 > 100 µM | OVCAR-5 > 100 µM | SF-268 > 100 µM | SK-MEL-28 > 100 µM | SK-MEL-2 > 100 µM | SK-OV-3 > 100 µM | SW-620 > 100 µM

CC(=O)OCC(OC(C)=O)C(OC(C)=O)C(OC(C)=O)C(=O)CNn1c(-c2ccccc2Cl)nc2ccccc2c1=O (stereo not drawn)
inactive: CAKI-1 > 100 µM | COLO 205 > 100 µM | EKVX > 100 µM | HOP-62 > 100 µM | K562 > 100 µM | M14 > 100 µM | MOLT-4 > 100 µM | Malme-3M > 100 µM | NCI-H460 > 100 µM | OVCAR-4 > 100 µM | OVCAR-5 > 100 µM | SF-268 > 100 µM | SK-MEL-28 > 100 µM | SK-MEL-2 > 100 µM | SK-OV-3 > 100 µM | SW-620 > 100 µM

O=C(O)c1cccc(/C=C/c2ccccc2)c1
inactive: CAKI-1 > 100 µM | COLO 205 > 100 µM | EKVX > 100 µM | HOP-62 > 100 µM | Hs-578T > 100 µM | M14 > 100 µM | MOLT-4 > 100 µM | Malme-3M 72.6 µM | NCI-H460 > 100 µM | NCI/ADR-RES > 100 µM | OVCAR-4 > 100 µM | OVCAR-5 > 100 µM | SF-268 > 100 µM | SK-MEL-28 > 100 µM | SK-MEL-2 > 100 µM | SK-OV-3 > 100 µM | SW-620 > 100 µM | T47D > 100 µM

CC(=O)CC(=O)OC1CC(C)CCC1C(C)C (stereo not drawn)
inactive: CAKI-1 > 100 µM | COLO 205 96.2 µM | EKVX > 100 µM | HOP-62 33.9 µM | K562 16 µM | M14 > 100 µM | MOLT-4 17.3 µM | Malme-3M 40.7 µM | NCI-H460 53.3 µM | OVCAR-4 54.5 µM | OVCAR-5 > 100 µM | SF-268 45.7 µM | SK-MEL-28 63.4 µM | SK-MEL-2 28.4 µM | SK-OV-3 > 100 µM | SW-620 43.1 µM

O=C(/C=C/c1ccccc1Cl)c1ccc(Cl)c(Cl)c1
inactive: CAKI-1 15.4 µM | COLO 205 > 100 µM | EKVX 14.5 µM | HOP-62 23 µM | K562 26.8 µM | M14 17.5 µM | MOLT-4 21.3 µM | Malme-3M 22.8 µM | NCI-H460 34.5 µM | OVCAR-4 12.9 µM | OVCAR-5 17.6 µM | SF-268 18.3 µM | SK-MEL-28 20.2 µM | SK-MEL-2 18 µM | SK-OV-3 24.5 µM | SW-620 15.1 µM
